Earlier results on 1 compound are cited in patent US20080206348A1, “Cilostazol-Containing Pharmaceutical Composition Based On Particles Of Less Than 50 Micrometers” (priority 2004, published 2008).

As to `O=C1CCc2cc(OCCCCc3nnnn3C3CCCCC3)ccc2N1` [Cilostazol], the Solubility in water result was “practically insoluble”.
